Source: patent publication US20230117034A1, “PYRAZOLOTRIAZINES” (Bayer Aktiengesellschaft, priority 2019, published 2023)

Assays:
[1] = biological target: T1, CDK12 (nuclear staining in CAL-120 cells) (Homo sapiens, UniProt Q9NYV4); test: CDK12 nuclear protein level: immunofluorescence/high content analysis (CAL-120); type: cell-based; details: for DC50: CAL-120 cells, 24 h, immunofluorescence, 50% reduction of nuclear CDK12 staining intensity, median, read-out: CDK12 degradation IF, DC50- [mol/l] (median); for (IC50 CDK12 high ATP) to (Degradation DC50 CDK12) ratio: ratio of IC50 CDK12 high ATP kinase assay to DC50 CDK12 degradation (IF, CAL-120)
T1 construct: endogenous in cells; host or cells: CAL-120 human breast cancer cells (DSMZ ACC 459)
Procedure, shortened: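 CAL-120 cells were treated with compound for 24 h at 37 °C, fixed with PFA and immunostained for CDK12. Nuclear CDK12 intensity was quantified by automated image analysis and normalized to DMSO and control. DC50 is the concentration giving 50% reduction of nuclear staining.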

CDK9/CycT1 = biological target: T2, CDK9/CycT1 (Homo sapiens, UniProt P50750); test: CDK9/CycT1 high ATP kinase assay (TR-FRET, 2 mM ATP); type: biochemical; details: 2 mM ATP (high ATP); median; read-out: CDK9/CyclinT1, 2 mM ATP (high ATP), IC50 (median)
T2 construct: Recombinant full-length His-tagged human CDK9 and CycT1; purchased Life Technologies PV4131; host or cells: insect cells
Procedure, shortened: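 Full-length His-tagged human CDK9/CycT1 (insect cell, ~0.5 μg/mL) preincubated 15 min at 22 °C with compound in Tris pH 8.0, MgCl2, DTT buffer before reaction with biotinylated peptide substrate at high ATP (2 mM).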

[2] = biological target: T3, CYCLIN K (nuclear staining in CAL-120 cells) (Homo sapiens, UniProt O75909); test: CYCLIN K nuclear protein level: immunofluorescence high content analysis (CAL-120); type: cell-based; details: 24 h, 50% reduction of nuclear CCNK staining intensity, median, read-out: CYCLIN K degradation IF, DC50-[mol/l] (median)
T3 construct: endogenous in cells; host or cells: CAL-120 human breast cancer cells (DSMZ ACC 459)
Procedure, shortened: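 CAL-120 breast cancer cells treated in dose-response for 24 h at 37 °C, PFA-fixed and immunostained for cyclin K with Hoechst counterstain. Confocal imaging quantified nuclear intensity; DC50 is the concentration giving 50% reduction of nuclear CCNK staining, normalized to DMSO and control.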

[3] = test system: MDA-MB-231, human breast cancer cells; test: Proliferation assay MDA-MB-231 (crystal violet, 4 days); type: cell-based; details: Homo sapiens, MDA-MB-231, 96 h, MDA-MB-231 cells, median, read-out: Prolif-MDA MB-231, IC50-[mol/l] (median)
Procedure, shortened: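 CAL-120 or MDA-MB-231 cells grown 24 h, then exposed 4 days to compound (0.01–10 micromol/L, 0.1% DMSO). Crystal violet staining, absorbance at 595 nm, normalised to a zero-point plate (0%) and untreated cells (100%); IC50 by 4-parameter fit.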

T1 sequence (Q9NYV4 whole entry): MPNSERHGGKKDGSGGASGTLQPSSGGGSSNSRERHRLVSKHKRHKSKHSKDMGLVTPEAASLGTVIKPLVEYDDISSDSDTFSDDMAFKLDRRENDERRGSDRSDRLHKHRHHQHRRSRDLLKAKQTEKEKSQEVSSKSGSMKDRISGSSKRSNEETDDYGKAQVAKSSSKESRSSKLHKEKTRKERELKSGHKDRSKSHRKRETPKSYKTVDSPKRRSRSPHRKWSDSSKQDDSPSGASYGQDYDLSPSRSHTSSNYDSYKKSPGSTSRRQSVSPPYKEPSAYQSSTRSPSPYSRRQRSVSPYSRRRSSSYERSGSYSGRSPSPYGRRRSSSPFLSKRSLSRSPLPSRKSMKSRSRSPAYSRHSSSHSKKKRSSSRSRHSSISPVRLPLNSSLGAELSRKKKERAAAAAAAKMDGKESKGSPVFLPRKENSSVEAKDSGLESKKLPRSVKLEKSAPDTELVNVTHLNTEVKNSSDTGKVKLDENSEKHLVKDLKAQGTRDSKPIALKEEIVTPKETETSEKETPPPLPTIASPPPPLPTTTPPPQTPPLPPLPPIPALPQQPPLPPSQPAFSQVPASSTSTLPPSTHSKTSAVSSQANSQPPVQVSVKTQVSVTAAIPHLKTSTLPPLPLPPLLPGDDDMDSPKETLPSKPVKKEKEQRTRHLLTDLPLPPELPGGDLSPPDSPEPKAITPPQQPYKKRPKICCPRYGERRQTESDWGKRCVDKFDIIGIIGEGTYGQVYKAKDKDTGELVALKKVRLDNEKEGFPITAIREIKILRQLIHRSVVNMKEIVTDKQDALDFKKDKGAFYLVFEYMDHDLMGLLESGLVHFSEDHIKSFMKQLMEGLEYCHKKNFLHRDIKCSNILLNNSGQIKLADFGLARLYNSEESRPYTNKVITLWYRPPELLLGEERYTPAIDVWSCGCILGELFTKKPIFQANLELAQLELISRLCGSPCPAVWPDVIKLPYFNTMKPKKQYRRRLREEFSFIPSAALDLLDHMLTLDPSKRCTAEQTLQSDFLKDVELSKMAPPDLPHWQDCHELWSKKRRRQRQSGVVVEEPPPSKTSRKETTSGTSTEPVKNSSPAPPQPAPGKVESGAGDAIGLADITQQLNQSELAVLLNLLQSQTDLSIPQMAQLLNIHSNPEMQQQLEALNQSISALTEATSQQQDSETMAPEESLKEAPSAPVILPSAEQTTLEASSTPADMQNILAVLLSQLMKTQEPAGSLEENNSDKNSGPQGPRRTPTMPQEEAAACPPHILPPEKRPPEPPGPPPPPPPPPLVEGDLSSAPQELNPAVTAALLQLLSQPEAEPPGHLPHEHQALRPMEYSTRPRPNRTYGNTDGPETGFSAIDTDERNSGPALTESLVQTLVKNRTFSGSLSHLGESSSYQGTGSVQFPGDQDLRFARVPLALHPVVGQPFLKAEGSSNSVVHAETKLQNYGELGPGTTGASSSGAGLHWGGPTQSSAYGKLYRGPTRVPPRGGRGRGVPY
T1 sequence (O75909 whole entry partner): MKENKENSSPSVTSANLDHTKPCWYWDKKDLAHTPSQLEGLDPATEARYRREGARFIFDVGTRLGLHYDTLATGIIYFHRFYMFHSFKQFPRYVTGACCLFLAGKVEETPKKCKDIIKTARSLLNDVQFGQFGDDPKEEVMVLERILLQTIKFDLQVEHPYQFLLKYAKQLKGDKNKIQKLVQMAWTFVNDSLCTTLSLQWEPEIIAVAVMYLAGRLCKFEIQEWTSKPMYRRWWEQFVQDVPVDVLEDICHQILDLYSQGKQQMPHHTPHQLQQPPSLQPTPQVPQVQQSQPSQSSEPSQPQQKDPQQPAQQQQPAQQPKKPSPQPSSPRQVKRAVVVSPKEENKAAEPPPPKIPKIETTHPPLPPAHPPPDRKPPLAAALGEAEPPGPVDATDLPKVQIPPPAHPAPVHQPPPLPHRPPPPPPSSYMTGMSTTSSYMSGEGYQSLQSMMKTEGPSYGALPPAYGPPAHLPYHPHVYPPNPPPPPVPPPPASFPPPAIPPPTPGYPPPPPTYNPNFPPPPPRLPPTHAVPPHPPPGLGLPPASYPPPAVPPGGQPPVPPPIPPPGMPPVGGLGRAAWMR
T3 sequence (O75909 whole entry): as the sequence (O75909 whole entry partner) above
T3 sequence (Q9NYV4 whole entry partner): as the sequence (Q9NYV4 whole entry) above
T2 sequence (P50750 whole entry): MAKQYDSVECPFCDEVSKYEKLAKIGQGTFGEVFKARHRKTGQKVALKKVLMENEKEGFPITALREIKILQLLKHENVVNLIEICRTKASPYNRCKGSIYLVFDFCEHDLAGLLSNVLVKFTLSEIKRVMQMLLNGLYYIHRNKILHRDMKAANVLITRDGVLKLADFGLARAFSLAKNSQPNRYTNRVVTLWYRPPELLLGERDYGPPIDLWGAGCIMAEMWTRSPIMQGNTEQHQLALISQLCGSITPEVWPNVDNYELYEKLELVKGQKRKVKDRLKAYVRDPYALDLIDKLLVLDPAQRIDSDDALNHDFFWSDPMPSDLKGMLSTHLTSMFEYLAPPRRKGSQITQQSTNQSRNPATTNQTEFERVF
T2 sequence (O60563 whole entry partner): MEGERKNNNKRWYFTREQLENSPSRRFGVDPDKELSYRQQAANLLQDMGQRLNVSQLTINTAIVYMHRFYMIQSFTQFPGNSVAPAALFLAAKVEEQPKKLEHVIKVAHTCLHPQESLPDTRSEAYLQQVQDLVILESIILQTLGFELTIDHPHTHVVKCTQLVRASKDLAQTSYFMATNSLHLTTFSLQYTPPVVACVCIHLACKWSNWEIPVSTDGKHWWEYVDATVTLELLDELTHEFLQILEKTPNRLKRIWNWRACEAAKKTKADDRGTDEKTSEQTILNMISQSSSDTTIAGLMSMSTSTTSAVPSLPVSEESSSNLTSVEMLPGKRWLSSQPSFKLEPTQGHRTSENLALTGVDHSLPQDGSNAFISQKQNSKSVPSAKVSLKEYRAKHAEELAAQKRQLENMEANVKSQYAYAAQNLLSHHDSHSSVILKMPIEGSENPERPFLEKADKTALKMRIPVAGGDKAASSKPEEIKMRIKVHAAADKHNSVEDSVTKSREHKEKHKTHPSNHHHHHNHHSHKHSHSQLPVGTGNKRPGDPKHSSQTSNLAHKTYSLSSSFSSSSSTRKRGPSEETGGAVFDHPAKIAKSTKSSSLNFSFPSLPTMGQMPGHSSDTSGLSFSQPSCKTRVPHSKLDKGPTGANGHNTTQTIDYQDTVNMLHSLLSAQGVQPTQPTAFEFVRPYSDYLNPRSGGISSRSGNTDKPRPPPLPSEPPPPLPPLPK

## COc1cccc(-c2nnc(CNc3nc(N4CCOCC4)nc4c(Br)cnn34)[nH]2)c1 [Example 50, 8-bromo-N-{[5-(3-methoxyphenyl)-4H-1,2,4-triazol-3-yl]methyl}-2-(morpholin-4-yl)pyrazolo[1,5-a][1,3,5]triazin-4-amine]
[1]
  DC50: 0.0125 µM
  (IC50 CDK12 high ATP) to (Degradation DC50 CDK12) ratio: 224
CDK9/CycT1
  IC50: 2.01 µM
[2]
  DC50: 0.00422 µM

## Brc1cnn2c(NCc3nc4ccccc4[nH]3)nc(N3CC4(COC4)C3)nc12 [Example 48, N-[(1H-benzimidazol-2-yl)methyl]-8-bromo-2-(2-oxa-6-azaspiro[3.3]heptan-6-yl)pyrazolo[1,5-a][1,3,5]triazin-4-amine]
[1]
  DC50: 0.0207 µM
  (IC50 CDK12 high ATP) to (Degradation DC50 CDK12) ratio: >276
CDK9/CycT1
  IC50: > 20 µM
[2]
  DC50: 0.00703 µM

## C[C@H]1COCCN1c1nc(NCc2nc3ccccc3[nH]2)n2ncc(Br)c2n1 [Example 57, N-[(1H-benzimidazol-2-yl)methyl]-8-bromo-2-[(3S)-3-methylmorpholin-4-yl]pyrazolo[1,5-a][1,3,5]triazin-4-amine]
[1]
  DC50: 0.00155 µM
  (IC50 CDK12 high ATP) to (Degradation DC50 CDK12) ratio: 669
CDK9/CycT1
  IC50: 6.67 µM
[2]
  DC50: 0.000189 µM

## Brc1cnn2c(NCc3nc4ccccc4[nH]3)nc(N3CCCC3)nc12 [Example 47, N-[(1H-benzimidazol-2-yl)methyl]-8-bromo-2-(pyrrolidin-1-yl)pyrazolo[1,5-a][1,3,5]triazin-4-amine]
[1]
  DC50: 0.00575 µM
  (IC50 CDK12 high ATP) to (Degradation DC50 CDK12) ratio: 1252
CDK9/CycT1
  IC50: > 20 µM
[2]
  DC50: 0.00398 µM

## Cc1cccc(-c2nnc(CNc3nc(N4CCOCC4)nc4c(Br)cnn34)[nH]2)c1 [Example 40, 8-bromo-N-{[5-(3-methylphenyl)-4H-1,2,4-triazol-3-yl]methyl}-2-(morpholin-4-yl)pyrazolo[1,5-a][1,3,5]triazin-4-amine]
[1]
  DC50: 0.00458 µM
  (IC50 CDK12 high ATP) to (Degradation DC50 CDK12) ratio: 532
CDK9/CycT1
  IC50: 2.82 µM
[2]
  DC50: 0.000611 µM

## Brc1cnn2c(NCc3nc4ccccc4[nH]3)nc(N3CCCCC3)nc12 [Example 46, N-[(1H-benzimidazol-2-yl)methyl]-8-bromo-2-(piperidin-1-yl)pyrazolo[1,5-a][1,3,5]triazin-4-amine]
[1]
  DC50: 0.018 µM
  (IC50 CDK12 high ATP) to (Degradation DC50 CDK12) ratio: 186
CDK9/CycT1
  IC50: > 20 µM
[2]
  DC50: 0.00154 µM

## Brc1cnn2c(NCc3nnc(-c4ccccc4)[nH]3)nc(N3CCCCC3)nc12 [Example 49, 8-bromo-N-[(5-phenyl-4H-1,2,4-triazol-3-yl)methyl]-2-(piperidin-1-yl)pyrazolo[1,5-a][1,3,5]triazin-4-amine]
[1]
  DC50: 0.0417 µM
  (IC50 CDK12 high ATP) to (Degradation DC50 CDK12) ratio: 147
CDK9/CycT1
  IC50: 2.61 µM
[2]
  DC50: 0.00534 µM

## Fc1cccc(-c2nnc(CNc3nc(N4CCOCC4)nc4c(Br)cnn34)[nH]2)c1 [Example 44, 8-bromo-N-{[5-(3-fluorophenyl)-4H-1,2,4-triazol-3-yl]methyl}-2-(morpholin-4-yl)pyrazolo[1,5-a][1,3,5]triazin-4-amine]
[1]
  DC50: 0.00171 µM
  (IC50 CDK12 high ATP) to (Degradation DC50 CDK12) ratio: 871
CDK9/CycT1
  IC50: 0.885 µM
[2]
  DC50: 0.00258 µM

## C[C@@H]1COCCN1c1nc(NCc2nc3ccccc3[nH]2)n2ncc(Br)c2n1 [Example 56, N-[(1H-benzimidazol-2-yl)methyl]-8-bromo-2-[(3R)-3-methylmorpholin-4-yl]pyrazolo[1,5-a][1,3,5]triazin-4-amine]
[1]
  DC50: 0.0151 µM
  (IC50 CDK12 high ATP) to (Degradation DC50 CDK12) ratio: 352
CDK9/CycT1
  IC50: > 20 µM
[2]
  DC50: 0.00219 µM

## OC[C@@H]1CCCCN1c1nc(NCc2nc3ccccc3[nH]2)n2ncc(Br)c2n1 [Example 59, [(2S)-1-(4-{[(1H-benzimidazol-2-yl)methyl]amino}-8-bromopyrazolo[1,5-a][1,3,5]triazin-2-yl)piperidin-2-yl]methanol]
[1]
  DC50: 0.00526 µM
  (IC50 CDK12 high ATP) to (Degradation DC50 CDK12) ratio: 104
CDK9/CycT1
  IC50: 10.7 µM
[2]
  DC50: 0.00285 µM

## Brc1cnn2c(NCc3nnc(-c4cccnc4)[nH]3)nc(N3CCOCC3)nc12 [Example 53, 8-bromo-2-(morpholin-4-yl)-N-{[5-(pyridin-3-yl)-4H-1,2,4-triazol-3-yl]methyl}pyrazolo[1,5-a][1,3,5]triazin-4-amine]
[1]
  DC50: 0.0472 µM
  (IC50 CDK12 high ATP) to (Degradation DC50 CDK12) ratio: 43
CDK9/CycT1
  IC50: 1.29 µM
[2]
  DC50: 0.00925 µM

## Clc1ccc(-c2nnc(CNc3nc(N4CCOCC4)nc4c(Br)cnn34)[nH]2)cc1 [Example 45, 8-bromo-N-{[5-(4-chlorophenyl)-4H-1,2,4-triazol-3-yl]methyl}-2-(morpholin-4-yl)pyrazolo[1,5-a][1,3,5]triazin-4-amine]
[1]
  DC50: 0.0692 µM
  (IC50 CDK12 high ATP) to (Degradation DC50 CDK12) ratio: 32
CDK9/CycT1
  IC50: 3.41 µM
[2]
  DC50: 0.0444 µM

## FC(F)(F)c1cccc(-c2nnc(CNc3nc(N4CCOCC4)nc4c(Br)cnn34)[nH]2)c1 [Example 52, 8-bromo-2-(morpholin-4-yl)-N-({5-[3-(trifluoromethyl)phenyl]-4H-1,2,4-triazol-3-yl}methyl)pyrazolo[1,5-a][1,3,5]triazin-4-amine]
[1]
  DC50: 0.0205 µM
  (IC50 CDK12 high ATP) to (Degradation DC50 CDK12) ratio: 80
CDK9/CycT1
  IC50: 1.84 µM
[2]
  DC50: 0.00283 µM

## N#Cc1cccc(-c2nnc(CNc3nc(N4CCOCC4)nc4c(Br)cnn34)[nH]2)c1 [Example 55, 3-[5-({[8-bromo-2-(morpholin-4-yl)pyrazolo[1,5-a][1,3,5]triazin-4-yl]amino}methyl)-4H-1,2,4-triazol-3-yl]benzonitrile]
[1]
  DC50: 0.00343 µM
  (IC50 CDK12 high ATP) to (Degradation DC50 CDK12) ratio: 224
CDK9/CycT1
  IC50: 0.718 µM
[2]
  DC50: 0.000843 µM

## CC(C)c1cnn2c(NCc3nnc(-c4ccccc4)[nH]3)nc(N(C)CC(C)(C)O)nc12 [Example 39, 2-methyl-1-{methyl[4-{[(5-phenyl-4H-1,2,4-triazol-3-yl)methyl]amino}-8-(propan-2-yl)pyrazolo[1,5-a][1,3,5]triazin-2-yl]amino}propan-2-ol]
[1]
  DC50: 0.0414 µM
  (IC50 CDK12 high ATP) to (Degradation DC50 CDK12) ratio: 113
CDK9/CycT1
  IC50: 4.91 µM
[2]
  DC50: 0.00813 µM

## OC[C@H]1CCCCN1c1nc(NCc2nc3ccccc3[nH]2)n2ncc(Br)c2n1 [Example 60, [(2R)-1-(4-{[(1H-benzimidazol-2-yl)methyl]amino}-8-bromopyrazolo[1,5-a][1,3,5]triazin-2-yl)piperidin-2-yl]methanol]
[1]
  DC50: 0.00925 µM
  (IC50 CDK12 high ATP) to (Degradation DC50 CDK12) ratio: 202
CDK9/CycT1
  IC50: 7.34 µM
[2]
  DC50: 0.00305 µM

## Clc1cccc(-c2nnc(CNc3nc(N4CCOCC4)nc4c(Br)cnn34)[nH]2)c1 [Example 51, 8-bromo-N-{[5-(3-chlorophenyl)-4H-1,2,4-triazol-3-yl]methyl}-2-(morpholin-4-yl)pyrazolo[1,5-a][1,3,5]triazin-4-amine]
[1]
  DC50: 0.00781 µM
  (IC50 CDK12 high ATP) to (Degradation DC50 CDK12) ratio: 222
CDK9/CycT1
  IC50: 1.29 µM
[2]
  DC50: 0.00315 µM

## COc1cccc2nc(CNc3nc(N4CCOCC4)nc4c(-c5ccnnc5)cnn34)[nH]c12.O=C(O)C(F)(F)F [Example 439, trifluoroacetic acid N-[(7-methoxy-1H-benzimidazol-2-yl)methyl]-2-(morpholin-4-yl)-8-(pyridazin-4-yl)pyrazolo[1,5-a][1,3,5]triazin-4-amine]
[1]
  DC50: 0.00465 µM
  (IC50 CDK12 high ATP) to (Degradation DC50 CDK12) ratio: 850
CDK9/CycT1
  IC50: > 20 µM
[3]
  IC50: 0.18 µM

## O=C(O)C(F)(F)F.c1ccc2[nH]c(CNc3nc(N4CCOCC4)nc4c(-c5ccnnc5)cnn34)nc2c1 [Example 438, trifluoroacetic acid N-[(1H-benzimidazol-2-yl)methyl]-2-(morpholin-4-yl)-8-(pyridazin-4-yl)pyrazolo[1,5-a][1,3,5]triazin-4-amine]
[1]
  DC50: 0.138 µM
  (IC50 CDK12 high ATP) to (Degradation DC50 CDK12) ratio: >57
CDK9/CycT1
  IC50: > 20 µM
[3]
  IC50: 0.283 µM

## CCNc1nc(NCc2ncc(-c3ccccc3)[nH]2)n2ncc(C(C)C)c2n1 [Example 34, N^2-ethyl-N^4-[(5-phenyl-1H-imidazol-2-yl)methyl]-8-(propan-2-yl)pyrazolo[1,5-a][1,3,5]triazine-2,4-diamine]
[1]
  DC50: 0.0127 µM
  (IC50 CDK12 high ATP) to (Degradation DC50 CDK12) ratio: >449
CDK9/CycT1
  IC50: > 20 µM
[3]
  IC50: 0.0486 µM

## COc1ccccc1-c1nnc(CNc2nc(N3CCN(C)CC3)nc3c(C4CC4(F)F)cnn23)[nH]1 (stereo not drawn) [Example 430, 8-(2,2-difluorocyclopropyl)-N-{[5-(2-methoxyphenyl)-4H-1,2,4-triazol-3-yl]methyl}-2-(4-methylpiperazin-1-yl)pyrazolo[1,5-a][1,3,5]triazin-4-amine]
[1]
  DC50: 0.0253 µM
  (IC50 CDK12 high ATP) to (Degradation DC50 CDK12) ratio: >789
CDK9/CycT1
  IC50: > 20 µM
[3]
  IC50: 0.0815 µM
